The results in this text go back to ChEMBL document CHEMBL5370612, “Cytotoxic Epipolythiodioxopiperazines from the Deep-Sea-Derived Fungus Exophiala mesophila MCCC 3A00939” (J Nat Prod, 2023).

A short description of data set [1]: Cytotoxicity against human L02 cells by SRB method. The data set is classed as toxicity, cell-based.
Data set [2] relates to ASPC1. As to the kind of experiment: Cytotoxicity against human ASPC1 cells by SRB method. The data set is classed as functional, cell-based. In general terms: Sulforhodamine B stains cellular protein and so reports cell mass.
Data set [3] deals with K562. As to the kind of experiment: Cytotoxicity against human K562 cells by MTT method. It counts as functional, cell-based. On the technique in general: Tetrazolium dyes change colour on reduction, which living cells bring about.
Data set [4] relates to MDA-MB-231. As to the kind of experiment: Cytotoxicity against human MDA-MB-231 cells by SRB method. It counts as functional, cell-based.
The subject of data set [5] is H69AR. As to the kind of experiment: Cytotoxicity against human NCI-H69AR cells by SRB method. It counts as functional, cell-based.

Some results are limits rather than exact numbers.

What is called IC50 is the concentration needed to halve the response being measured. Turning to `CS[C@@]12CC3=COC=C[C@H](OC(C)=O)[C@H]3N1C(=O)[C@]1(SC)CC3=COC=C[C@H](OC(C)=O)[C@H]3N1C2=O`, the IC50 in data set [1], in data set [2], in data set [3], in data set [4] and in data set [5] was greater than 30 µM in each case.

As for `CS[C@@]12CC3=COC=C[C@H](O)[C@H]3N1C(=O)[C@]1(SC)CC3=COC=C[C@H](O)[C@H]3N1C2=O`, the IC50 in data set [1], in data set [2], in data set [3], in data set [4] and in data set [5] was greater than 30 µM throughout.

Take `CS[C@@]12CC3=COC=C[C@H](OC(C)=O)[C@H]3N1C(=O)[C@]1(SC)CC3=COC=C[C@H](O)[C@H]3N1C2=O`: the 50% inhibitory concentration (IC50) in data set [1], in data set [2], in data set [3], in data set [4] and in data set [5] was greater than 30 µM throughout.

`CS[C@@]12CC3=COC=C[C@H](OC(=O)CC(C)=C(C)C)[C@H]3N1C(=O)[C@]1(SC)CC3=COC=C[C@H](O)[C@H]3N1C2=O`: the IC50 in data set [1], in data set [2], in data set [3], in data set [4] and in data set [5] was greater than 30 µM throughout.

Regarding `CS[C@@]12CC3=COC=C[C@H](OC(C)=O)[C@H]3N1C(=O)[C@]1(SC)CC3=COC=C[C@H](OC(=O)CC(C)=C(C)C)[C@H]3N1C2=O`, the concentration for half-maximal inhibition (IC50) in data set [1] is greater than 30 µM; in data set [2], greater than 30 µM; in data set [3] it was greater than 30 µM; in data set [4], 29 µM; in data set [5] it was greater than 30 µM.

Regarding `CC(C)=C(C)CC(=O)O[C@H]1C=COC=C2C[C@@]34SSSS[C@]5(CC6=COC=C[C@H](O)[C@H]6N5C3=O)C(=O)N4[C@@H]21`, the concentration for half-maximal inhibition (IC50) was determined as 8.5 µM in data set [1]; 13 µM in data set [2]; 2.3 µM in data set [3]; 3.7 µM in data set [4]; 5.9 µM in data set [5].

Turning to `O=C(Cc1ccccc1)O[C@H]1C=COC=C2C[C@@]34SSSS[C@]5(CC6=COC=C[C@H](O)[C@H]6N5C3=O)C(=O)N4[C@@H]21`, the IC50 in data set [1] came to 18 µM; in data set [2], 25 µM; in data set [3], 3.1 µM; in data set [4] it was 4.3 µM; in data set [5] it was 3.6 µM.

On to `CC(=O)O[C@H]1C=COC=C2C[C@@]34SS[C@]5(CC6=COC=C[C@H](O)[C@H]6N5C3=O)C(=O)N4[C@@H]21` [ARANOTIN], for which the IC50 in data set [1] was 16 µM; in data set [2], 11 µM; in data set [3] it was 1.4 µM; in data set [4], 0.7 µM; in data set [5], 1.7 µM.

Regarding `COc1cccc2c1C(=O)c1c(O)c3c(c(O)c1C2=O)C[C@@](O)(C(=O)CO)C[C@@H]3O[C@H]1C[C@H](N)[C@H](O)[C@H](C)O1` [DOXORUBICIN], the IC50 in data set [1], in data set [2], in data set [3], in data set [4] and in data set [5] was less than 1 µM in each case.
